Experimental data reported in patent US20260207606A1, “DOSING SCHEDULE OF A SOLID DISPERSION OF A HER2 INHIBITOR” (Boehringer Ingelheim International GmbH, priority 2022, published 2026).

Columns and labels:
[1] = system: patients with HER2 mutation positive advanced/metastatic NSCLC; test: Phase Ib dose expansion, Cohort 1: safety (treatment related adverse events); format: in vivo, human; settings: 120/240 mg QD, 42 patients
Text: (§1) This Example focuses on the dose expansion part (Phase Ib) of the Phase I study described in Example 8. Approximately 275 patients diagnosed with advanced or metastatic refractory NSCLC harbouring mutations in the HER2 gene are enrolled. Patients are divided into 5 cohorts according to the main inclusion criteria listed below.
(§2) The trial objectives of Phase Ib include: • For cohort 1, cohort 2, and cohort 5, assess objective tumour response rate by central independent review; • For cohort 3, assess objective tumour response rate by investigator assessment; • For all cohorts, further investigate the safety, tolerability, and PK of the investigated doses of zongertinib in patients with HER2 mutation positive advanced/metastatic NSCLC; • For all cohorts, continue evaluating safety, and patient-reported outcomes.
The main inclusion criteria include: • Patients with a confirmed diagnosis of an advanced, unresectable and/or metastatic non-haematologic malignancy with at least one measurable lesion; • Availability and willingness to provide a sample of archival formalin-fixed paraffin embedded (FFPE) tumour tissue material; • Patients must be willing to comply with the blood sampling and tumour biopsy requirements for PK, PD and biomarker analyses; • For cohort 1: Patients with documented HER2 Tyrosine Kinase Domain (TKD) mutation positive non-squamous NSCLC who had received, in the advanced/metastatic setting, at least one line of systemic therapy that includes a platinum-based combination chemotherapy; • For cohort 2: Patients with documented HER2 Tyrosine Kinase Domain (TKD) mutation positive non-squamous NSCLC who have not received any previous lines of therapy (neo or adjuvant chemo, chemoradio or radiotherapy is permitted if at least 6 months have elapsed prior to disease progression); • For cohort 3: Patients with documented HER2 Non-TKD mutation positive NSCLC, and HER2 TKD mutation positive squamous NSCLC, who had received in the advanced/metastatic setting at least one line of systemic therapy that includes a platinum-based combination chemotherapy; • Patients in these cohorts 1 to 4 must have not received prior therapy with HER2 directed antibody-drug conjugates (ADC); • For cohort 5: Patients with documented HER2 TKD mutation positive non-squamous NSCLC who had received prior therapy with HER2 directed ADC in the advanced/metastatic setting and developed disease progression during or after completing this therapy.
The treatment consists of reiterated cycles of 3 weeks as long as the patient has clinical benefit or until undue drug toxicity or withdrawal of consent, whichever occurs first.

[2] = system: PC-9 YVMA xenograft; test: Preclinical PK/TGI model for human dose prediction; set-up: species or system mice; settings: PK/TGI model with predicted human PK parameters
Procedure: This preclinical mathematical model was built with input data from internal in vitro and in vivo data from efficacy experiments in PC-9 YVMA xenograft. Plasma exposure and tumor growth inhibition data from mice were used to train the model. The predicted human PK parameters were used to predict the human plasma profile in the preclinical PK/TGI model. In this setting the PK/TGI model was used to identify the required dose in human necessary to achieve a TGI >100%. This was predicted at 40 mg BID.

[3] = system: HER2 Tyrosine Kinase Domain (TKD) mutation positive non-squamous NSCLC; test: Phase Ib dose expansion, Cohort 1: objective response and disease control (RECIST 1.1); format: in vivo, human; settings: 120/240 mg QD
Text: as §1, §2
The primary endpoints of Phase Ib include: • For cohort 1, 2, and 5: objective response (OR) assessed by independent central review, according to Response Evaluation Criteria In Solid Tumors (RECIST) version 1.1; • For cohort 3: objective response (OR) by investigator.
For Cohort 1, 2, and 5: • Duration of objective response (DoR) according to RECIST 1.1 by central independent review; • Disease control (DC) according to RECIST 1.1 by central independent review; • Progression-free survival (PFS) according to RECIST 1.1 by central independent review; […]

[4] = system: NSCLC; test: Phase Ia dose escalation trial: tumour response according to RECIST v1.1 in NSCLC patients; format: in vivo, human; settings: regardless of confirmation, data lock 16 Mar. 2023
Text: Tumour assessments should include computed tomography (CT) scans of the chest, abdomen/pelvis (or PET/CT) and a brain MRI at screening. If clinically indicated, imaging of any other known or suspected sites of disease (e.g. bone) using an appropriate method (CT scan, MRI, PET/CT, or bone scan) should be performed. The same radiographic procedure must be used throughout the trial. Assessments will be performed by the investigator at screening (≤28 days prior to initiation of treatment), every 2 cycles (6 weeks ±5 days), at the end-of-treatment (EOT) visit (if not performed within the previous 3 weeks), and at the discretion of the investigator, and copies may be collected by the sponsor or designee. Wherever possible the assessment schedule should not be changed, but if there is an interruption or delay to treatment, alteration of the tumour assessment schedule to align with clinical assessments is allowed. Additional unscheduled tumour assessments may be performed at the discretion of the investigator. If the patient stops trial medication for a reason other than progression, tumour assessment according to RECIST v1.1 continues until progression (or until one of the following occurs; death, lost to follow-up, end of the trial).
Tumour response is evaluated according to RECIST Version 1.1 (Eisenhauer E A, Therasse P, Bogaerts J, Schwartz L H, Sargent D, Ford R, et al. New response evaluation criteria in solid tumours: revised RECIST guideline (version 1.1). Eur J Cancer. 2009; 45:228-247). RECIST 1.1 is used for a) whole-body assessment (classical RECIST 1.1) and b) the tumour assessment of non-CNS areas. The assessment according to classical RECIST 1.1 by the investigator and/or the local radiologist is the basis for continuation or discontinuation of the trial in an individual patient (in addition to safety). No whole-body RECIST assessment is performed in the dose escalation part.

[5] = 23 evaluable patients (received 2-5 cycles at cut-off)

C=CC(=O)NC1CCN(c2ncc3ncnc(Nc4ccc(Oc5ccc6c(c5)ncn6C)c(C)c4)c3n2)CC1 [compound (1), N-{1-[8-({3-methyl-4-[(1-methyl-1H-1,3-benzodiazol-5-yl)oxy]phenyl}amino)-[1,3]diazino[5,4-d]pyrimidin-2-yl]piperidin-4-yl}prop-2-enamide]
AEs leading to treatment discontinuation [1]: No AEs led to treatment discontinuation | TRAE diarrhea, all grades [1]: 29% | TRAE diarrhea, grade ≥3 [1]: 0% | TRAE dysgeusia, all grades [1]: 10% | TRAE dysgeusia, grade ≥3 [1]: 0% | TRAE increased aspartate aminotransferase, all grades [1]: 10% | TRAE increased aspartate aminotransferase, grade ≥3 [1]: 2% | TRAE low appetite, all grades [1]: 10% | TRAE low appetite, grade ≥3 [1]: 0% | TRAE rash, all grades [1]: 21% | TRAE rash, grade ≥3 [1]: 0% | Treatment related adverse events (TRAEs), all grades ([1]; Jul. 31, 2023): 67% | Treatment related adverse events (TRAEs), grade ≥3 ([1]; Jul. 31, 2023): 10% | predicted dose in human necessary to achieve a TGI >100% [2]: 40 mg BID | DCR [3, 5]: 91% | ORR [3, 5]: 74% | responding patients on treatment at data cut-off [3]: All responding patients remained on treatment | Best overall response (RECIST 1.1): Complete response, % ([4]; 15 mg BID, 1 NSCLC patients): 0.0% | Best overall response (RECIST 1.1): Non-CR/Non-PD, % ([4]; 15 mg BID, 1 NSCLC patients): 0.0% | Best overall response (RECIST 1.1): Not evaluable, % ([4]; 15 mg BID, 1 NSCLC patients): 0.0% | Best overall response (RECIST 1.1): Partial response, % ([4]; 15 mg BID, 1 NSCLC patients): 0.0% | Best overall response (RECIST 1.1): Progressive disease, % ([4]; 15 mg BID, 1 NSCLC patients): 0.0% | Best overall response (RECIST 1.1): Stable disease, % ([4]; 15 mg BID, 1 NSCLC patients): 100.0% | Best overall response (RECIST 1.1): Complete response, % ([4]; 30 mg BID, 2 NSCLC patients): 0.0% | Best overall response (RECIST 1.1): Non-CR/Non-PD, % ([4]; 30 mg BID, 2 NSCLC patients): 0.0% | Best overall response (RECIST 1.1): Not evaluable, % ([4]; 30 mg BID, 2 NSCLC patients): 0.0% | Best overall response (RECIST 1.1): Partial response, % ([4]; 30 mg BID, 2 NSCLC patients): 50.0% | Best overall response (RECIST 1.1): Progressive disease, % ([4]; 30 mg BID, 2 NSCLC patients): 0.0% | Best overall response (RECIST 1.1): Stable disease, % ([4]; 30 mg BID, 2 NSCLC patients): 50.0% | Best overall response (RECIST 1.1): Complete response, % ([4]; 60 mg BID, 3 NSCLC patients): 0.0% | Best overall response (RECIST 1.1): Non-CR/Non-PD, % ([4]; 60 mg BID, 3 NSCLC patients): 0.0% | Best overall response (RECIST 1.1): Not evaluable, % ([4]; 60 mg BID, 3 NSCLC patients): 0.0% | Best overall response (RECIST 1.1): Partial response, % ([4]; 60 mg BID, 3 NSCLC patients): 66.7% | Best overall response (RECIST 1.1): Progressive disease, % ([4]; 60 mg BID, 3 NSCLC patients): 0.0% | Best overall response (RECIST 1.1): Stable disease, % ([4]; 60 mg BID, 3 NSCLC patients): 33.3% | Best overall response (RECIST 1.1): Complete response, % ([4]; 60 mg QD, 2 NSCLC patients): 0.0% | Best overall response (RECIST 1.1): Non-CR/Non-PD, % ([4]; 60 mg QD, 2 NSCLC patients): 0.0% | Best overall response (RECIST 1.1): Not evaluable, % ([4]; 60 mg QD, 2 NSCLC patients): 0.0% | Best overall response (RECIST 1.1): Partial response, % ([4]; 60 mg QD, 2 NSCLC patients): 50.0% | Best overall response (RECIST 1.1): Progressive disease, % ([4]; 60 mg QD, 2 NSCLC patients): 0.0% | Best overall response (RECIST 1.1): Stable disease, % ([4]; 60 mg QD, 2 NSCLC patients): 50.0% | Best overall response (RECIST 1.1): Complete response, % ([4]; 100 mg BID, 3 NSCLC patients): 0.0% | Best overall response (RECIST 1.1): Non-CR/Non-PD, % ([4]; 100 mg BID, 3 NSCLC patients): 0.0% | Best overall response (RECIST 1.1): Not evaluable, % ([4]; 100 mg BID, 3 NSCLC patients): 0.0% | Best overall response (RECIST 1.1): Partial response, % ([4]; 100 mg BID, 3 NSCLC patients): 33.0% | Best overall response (RECIST 1.1): Progressive disease, % ([4]; 100 mg BID, 3 NSCLC patients): 0.0%
